Results as given in patent US12357608B2, “Methods and compositions utilizing RRx-001 combination therapy for radioprotection” (priority 2018, dated 2025).
Entries after “also recorded” stand apart in the source; their conditions may differ.

Legend:
CD2F1 male mice = assay: Survival following lethal total body irradiation (TBI); type: in vivo
Protocol: In this Example, the effects of systemic administration of RRx-001 on survival in response to a lethal dose of radiation was assayed in mice. CD2F1 male mice 9.5-11 weeks old were administered a single dose of RRx-001 by intraperitoneal (IP) injection 24 hours prior to a lethal radiation dose. 24 mice received 10 mg/kg RRx-001 (formulated in 5% DMSO in sterile H2O) and 24 mice received the vehicle control (5% DMSO) in sterile H2O only).
The mice were subjected to total body irradiation (TBI) with 9.35 Gy (LD70/30) at 0.6 Gy/min using High-level Cobalt-60. Unanesthetized mice were placed in well-ventilated Plexiglas restrainers and irradiated bilaterally. Sham-irradiated mice were also placed in identical Plexiglas restrainers and kept in a room shielded from irradiation at the same time. In each experiment, the dose to the abdominal cores of the animals was delivered at a dose rate of approximately 0.6 Gy/min. Dosimetry was performed prior to the irradiation of the animals using the highly accurate alanine/electron spin resonance (ESR) dosimetry system (American Society for Testing and Materials, Standard E 1607) to measure dose rates (to water) in the cores of acrylic mouse phantoms, which were located in the compartments of the exposure rack. A calibration curve based on standard alanine calibration dosimeters provided by the National Institute of Standards and Technology (NIST, Gaithersburg, MD) was used to measure the doses. The accuracy of the dose rate calibrations has been verified several times using the services of the National Physics Laboratory (UK National Standards Laboratory, London, UK) and the M.D. Anderson Cancer Center (Houston, TX). The corrections applied to the measured dose rates in the phantoms were for a small difference in the Co-60 energy between the mass energy-absorption coefficients for soft tissue and water, as well as source decay. The radiation field was uniform within ±1.2%.
Mice were monitored at least twice a day for 30 days post-irradiation. During the critical period (days 10-20), mice were monitored at least three times a day with no more than 10 hours between observations. Mice displaying any signs of discomfort received food in their cage as a wet mash. Mice displaying overt dyspnea, weight loss, lethargy, or other markers of moribundity and appearing to be in distress were humanely euthanized in a separate room using carbon dioxide gas followed by cervical dislocation after breathing stopped as a confirmatory method of euthanasia. This experiment was repeated for a total of n=24 mice per group.
Survival curves were estimated using the Kaplan-Meier method and were compared using a two-sided log-rank test at the 0.05 significance level. P-values were considered statistically significant if less than 0.05.

[1] = system: human normal bone marrow mesenchymal stem cells (hMSC); assay: Western blotting of antioxidant response element (ARE) proteins in irradiated hMSC; type: cell-based; details: 5 mM RRx-001 16 hours
Protocol: Antioxidant response element (ARE) genes such as heme oxygenase 1 (HO-1), NAD(P)H Dehydrogenase [Quinone] 1 (NQO-1) and Superoxide Dismutase (SOD) are involved in the detoxification and elimination of reactive oxidants.
(§1) Expression of ARE proteins was assayed in hMSC, macrophages, and monocytes following in vitro irradiation of the cells, which were pretreated with RRx-001 or vehicle. Protein expression was assayed by Western blotting and protein quantification.
(§2) hMSC were treated for 16 hours with […] RRx-001 or the vehicle control (0.05% DMSO), irradiated at 10 Gy or sham-irradiated and the protein collected 8 or 24 hours post-sham or irradiation. Human monocytic leukemic THP-1 and U937 cells were differentiated into macrophages with 50 nM Phorbol 12-myristate 13-acetate (PMA) for 24 hours before treatment. Differentiated and non-differentiated cells were treated with […] RRx-001 or 0.05% DMSO (vehicle control) for 16 hours prior to radiation. The cells were irradiated at 5 Gy or sham-irradiated and collected 4-8 hours later for both analysis. For each experiment, duplicates of each sample were run.

U937 cells = assay: Western blotting of ARE proteins in U937 monocytes and macrophages; type: cell-based, human; details: 3 mM RRx-001 16 hours
Protocol: as §1, §2

THP-1 cells [2] = assay: Western blotting of ARE proteins in THP-1 monocytes and macrophages; type: cell-based, human; details: THP-1 macrophages; 3 mM RRx-001 16 hours
Protocol: as §1, §2

THP-1 cells [3] = assay: Cytokine array of irradiated THP-1 monocytes and macrophages; type: cell-based, human
Protocol: A cytokine array was employed to examine cytokine expression following in vitro irradiation of human monocytic leukemic THP-1 cells. THP-1 cells were differentiated into macrophages with 50 nM Phorbol 12-myristate 13-acetate (PMA) for 24 hours before treatment. Differentiated and non-differentiated cells were treated with […] RRx-001 or 0.05% DMSO (vehicle control) for 16 hours prior to radiation. The cells were irradiated at 5 Gy or sham-irradiated and collected 4-8 hours later for both analysis. For the cytokine analysis, cell media was collected and blotted onto Proteome Profiler Human Cytokine Arrays (R&D Systems, Inc.) according to the manufacturer's protocol.

O=C(CBr)N1CC([N+](=O)[O-])([N+](=O)[O-])C1 [RRx-001, 2-bromo-1-(3,3-dinitroazetidin-1-yl)ethan-1-one]
increase in mean survival time compared to the vehicle control (CD2F1 male mice; 10 mg/kg 24 hours prior to lethal TBI): 7 days
increase in survival (CD2F1 male mice; 10 mg/kg 24 hours prior to lethal TBI, vs vehicle control): 33.4%
survival times, means±standard errors (CD2F1 male mice; 10 mg/kg IP 24 hours prior to 9.35 Gy TBI, 30-day observation, N=24/group): 27.2 ± 1.1 days
reduction in the 30-day death risk (CD2F1 male mice; one dose 10 mg/kg IP 24 hours prior to 9.35 Gy (LD70/30) TBI, vs vehicle control irradiated mice): ~33.4%
SOD1 and 2 expression ([1]; 10 Gy irradiation, 8 hours): slight increase
HO-1 expression increase ([1]; 24 hours post-sham or irradiation): 2-3.5 fold
NQO-1 expression ([1]; all groups): slightly reduced
HO-1 expression increase ([1]; sham and 10 Gy irradiated groups, 8 hours post-sham or irradiation): 22-26 fold
NQO-1 expression (U937 cells; U937 macrophages): no change
SOD-1 expression (U937 cells; U937 macrophages): no change
HO-1 production (U937 cells; U937 macrophages, sham and irradiated groups): increased HO-1 production
HO-1 expression (U937 cells; U937 monocyte fraction): significant increase in HO-1
HO-1 expression (THP-1 cells [2]): no significant increase in HO-1
cytokines involved in inflammation (THP-1 cells [3]; THP-1 macrophage fraction, sham and 5 Gy irradiated, 3 mM RRx-001 16 hours): reduction in cytokines involved in inflammation
pro-inflammatory chemokine IL-8 (THP-1 cells [3]; THP-1 macrophages): reduction
CCL5/RANTES expression (THP-1 cells [3]; THP-1 monocytes, 3 mM RRx-001 16 hours): induction; also recorded: upregulation
